Measurements: patent US11179449B2, “Immunogenic preprocalcitonin peptides” (Institut Gustave Roussy, priority 2015, dated 2021)

Legend:
[1] = test system: PBMC of patients with non-small cell lung cancer (NSCLC); experiment: In vitro stimulation of PBMC of NSCLC patients with 9- or 10-aa ppCT peptides, CD8+/IFNγ+ cells by flow cytometry; format: cell-based, human
Method: The peripheral blood mononuclear cells (PBMC) of 11 patients with non-small cell lung cancer (NSCLC) were isolated from the peripheral blood by Ficoll. For each peptide, the PBMC were stimulated twice (D0 and D7) with 20 μM of peptide. The PBMC were cultivated for 2 weeks on 96-well plates, at a rate of 20 million cells/plate, on complete medium (RPMI 1640, 10% SAB, 1% sodium pyruvate, 0.1% penicillin/[…]) in the presence of IL-2 (20 IU/ml)+IL-4 (10 ng/ml)+IL-7 (10 ng/ml).
After 15 days, the PBMC are again stimulated with 2.5 μM of the peptide used during the first stimulation step, in the presence of 100 μg/ml of Brefeldin A, and incubated for 6 hours at 37° C., 5% CO2. The cells are then incubated for 20 minutes with an anti-CD8-APC antibody, then washed in PBS, fixed with PBS-formaldehyde 2% and permeabilised by BSA/saponin. They are then incubated with an anti-IFN-γ-PE antibody. The analysis is carried out by flow cytometry. The statistical study is performed using the Mann-Whitney test and the statistically significant increases are indicated (*p<0.05; **p<0.01; ***p<0.005).

[2] = test system: CD8 T lymphocytes expressing IFNγ (splenocytes); experiment: Immunisation of HLA-A2 transgenic mice with peptide combinations, CD8+/IFNγ+ splenocytes by flow cytometry after ex vivo restimulation; format: in vivo, transgenic mice for the HLA-A2 molecules; conditions: splenocytes of immunised mice
Method: The transgenic mice for the HLA-A2 molecules were immunised 4 times (D0, D7, D14 and D21), under the skin on the flank, with 100 μl of peptide combinations containing an equimolar mixture of 100 μM of each of the peptides and an adjuvant (25 μg of Poly (I:C)) (FIG. 4). At 28 days after the first injection, the mice were sacrificed and the splenocytes were recovered and cultivated overnight in complete medium (RPMI 1640, 10% FBS, 1% sodium pyruvate, 0.1% penicillin/[…]) in the presence of IL-2 (20 IU/ml).
The next day, the splenocytes were stimulated with 2.5 μM of each of the peptides, alone or in combination, in the presence of 10 μg/ml of Brefeldin A and incubated for 6 hours at 37° C., 5% CO2. The cells are then incubated for 20 minutes with an anti-CD8-PE antibody, then washed in PBS, fixed with PBS-formaldehyde 2% and permeabilised with BSA/saponin. They are then incubated with an anti-IFNγ-APC antibody. The analysis is carried out by flow cytometry.

[3] = patients 4, 5 and 7 (respond only to these peptides)

Sequence | lymphocyte response after stimulation ([1]; patient 3) | lymphocyte response after stimulation [1, 3] | CD8 T lymphocyte response induced by the peptide alone on ex vivo stimulation [2]
CMLGTYTQDF (synthetic peptide ppCT91-100) | triggers a response |  | 
FLALSILVL (synthetic peptide ppCT9-17) |  | trigger a lymphocyte response | 
LLAALVQDYV (synthetic peptide ppCT50-59) | triggers a response | trigger a lymphocyte response | strong response
